In ChEMBL document CHEMBL1149581, “Colon-specific, mutual azo prodrug of 5-aminosalicylic acid with L-tryptophan: synthesis, kinetic studies and evaluation of its mitigating effect in trinitrobenzenesulfonic acid-induced colitis in rats” (Bioorg Med Chem, 2007):
Calls of active or inactive are those of the source. The rule behind the calls is not given here.

Legend:
Rattus norvegicus [1] = assay: Ulcerogenic activity in Wistar rat at 3000 mg/kg, po by cold stress method relative to control; format: toxicity, organism-based; design: dose 3000 mg/kg, route oral; settings: in vivo
Rattus norvegicus [2] = assay: Effect on TNBS-induced experimental colitis in po dosed Sprague-Dawely rat assessed as colon to body weight ratio after 5 days relative to control; format: functional
[3] = Partition coefficient, log P in n-octanol/phosphate buffer at pH 7.4; format: physicochemical
Rattus norvegicus [4] = assay: Ulcerogenic activity in Wistar rat at 2290 mg/kg, po by cold stress method relative to control; format: toxicity, organism-based; design: dose 2290 mg/kg, route oral; settings: in vivo
[5] = Aqueous solubility of the compound; format: physicochemical
Rattus norvegicus [6] = assay: Effect on TNBS-induced experimental colitis in rectally dosed Sprague-Dawely rat assessed as colon to body weight ratio relative to control; format: functional
Rattus norvegicus [7] = assay: Ulcerogenic activity in Wistar rat at 2829 mg/kg, po by cold stress method relative to control; format: toxicity, organism-based; design: dose 2829 mg/kg, route oral; settings: in vivo
Rattus norvegicus [8] = assay: Decrease in TNBS-induced colonic damage in po dosed Sprague-Dawely rat; format: functional, organism-based

logD [3]	solubility [5] [mg/mL]	Structure (SMILES)	UI (Rattus norvegicus [1])	Ratio (Rattus norvegicus [2])	UI (Rattus norvegicus [4])	Ratio (Rattus norvegicus [6])	UI (Rattus norvegicus [7])	Activity (Rattus norvegicus [8])
		O=C(O)c1cc(/N=N/c2ccc(S(=O)(=O)Nc3ccccn3)cc2)ccc1O [SULFASALAZINE]	9	0.008				
0.64		Nc1ccc(O)c(C(=O)O)c1 [MESALAMINE]			59.6			
0.26	280	O=C([O-])c1cc(/N=N/C(Cc2c[nH]c3ccccc23)C(=O)[O-])ccc1O.[Na+].[Na+] (centres undefined)				0.0073	13	Active
